This is an account of results in paper PMC8584173, “The Cytotoxic Effect of Copper (II) Complexes with Halogenated 1,3-Disubstituted Arylthioureas on Cancer and Bacterial Cells” (International Journal of Molecular Sciences, 2021).

The subject of data set [1] is standard bacterial strains. Also noted: method as in PMID 29499458. As to conditions: cited from earlier work.
The test system of data set [2] is clinical methicillin-resistant strains of S. aureus (MRSA) and S. epidermidis (MRSE). As to conditions: cited from earlier work.
In data set [3] the test system is SW620 cells. Kind of data set: Annexin V-FITC/PI flow cytometry, SW620. The class given is cell-based, human. To be noted: SW620, 72 h. The procedure:
(§1) The cells were cultured and harvested under the conditions described in the cell culture section. […] The effect of these compounds on the process of early and late apoptosis and necrosis was determined, as described previously, by dual staining with annexin V-FITC and propidium iodide according to manufacturer’s protocol (Becton Dickinson). The cells that were annexin V-FITC positive and PI-negative were identified as early apoptotic and annexin V-FITC and PI-positive as late apoptotic or necrotic.

Data set [4] relates to SW480 cells. Briefly: Annexin V-FITC/PI flow cytometry, SW480. The format is cell-based, human. To be noted: SW480, 72 h. How it is done: as §1
In general terms: In flow cytometry, cells or beads pass a laser one at a time.

Data set [5] has as its system HaCaT (human immortal keratinocyte cell line). Kind of data set: MTT cytotoxicity assay, HaCaT. The class given is cell-based. To be noted: HaCaT normal cells, 72 h. The procedure:
(§2) The human primary (SW480), metastatic (SW620) colon cancer, metastatic prostate cancer (PC3) and human immortal keratinocyte (HaCaT) cell lines were purchased from the American Type Culture Collection (ATCC, Rockville, USA). The cells were cultured in medium according to protocols (MEM for SW480 and SW620, RPMI 1640 for PC3 and DMEM for HaCaT cells) supplemented with 10% fetal bovine serum (FBS), penicillin (100 U/mL) and streptomycin (100 μg/mL) and cultured in 37 °C/ 5% CO2 humidified incubator. The cells were cultured until appropriate confluence was achieved (80–90%). Next, they were harvested by treatment with 0.25% trypsin (Gibco Life Technologies, USA) and used for studies.
(§3) Cells without studied compounds in medium were used as a control.
(§4) The cell viability was assessed by determination of MTT salt (3-(4,5-dimethylthiazol-2-yl)-2,5-diphenyltetrazolium bromide) conversion by mitochondrial dehydrogenase. MTT assay was performed as previously described. Experiments were repeated three times. Cell viability was presented as a percentage of MTT reduction in the treated cells versus the control cells. Number of viable cells cultured without studied compounds was assumed to be 100%. Decreased relative MTT level means decreased cell viability. Thiourea complexes with the highest cytotoxic potential assessed by MTT determination (with the lowest IC50) were chosen for subsequent assessments of cytotoxicity mechanisms.

Data set [6] concerns PC3 cells. Kind of data set: Annexin V-FITC/PI flow cytometry, PC3. The class given is cell-based, human. As to conditions: PC3, 72 h. The procedure:
as §1

Data set [7] has as its system HaCaT cells. Briefly: LDH release assay, HaCaT. The class given is cell-based, human. As to conditions: doxorubicin (1.5 μM stated for the cancer lines). How it is done: The presence of lactate dehydrogenase (LDH) in culture medium indicates a disturbance of the integrity of the cellular membrane. The LDH activity was performed after 72 h incubation of cells (1 × 10^4 cells per well) in 96-well plates with selected compounds according to manufacturer’s protocol (Roche Diagnostics, Germany), as was described by Chrzanowska et al.. Compound mediated cytotoxicity was determined using equation: ((A test sample−A low control)/ (A high control−A low control)) × 100% (A-absorbance), where “low control” means cells in medium with 2% FBS without tested compounds, and “high control” means cells incubated in medium with 2% FBS and 1% Triton X-100 (100% LDH release). The cytotoxicity was expressed as percentage of LDH release as compared with the maximum release of LDH from Triton-X-100-treated cells.
Background: LDH in the medium is a marker of cell lysis.

In data set [8] the test system is HaCaT cells. Briefly: Annexin V-FITC/PI flow cytometry, HaCaT. The format is cell-based, human. As to conditions: 72 h. The procedure: as §1
Data set [9] has as its system SW480 (human primary colon cancer). Kind of data set: MTT cytotoxicity assay, SW480. The format is cell-based. As to conditions: SW480, 72 h. How it is done:
as §2, §3, §4

Data set [10] concerns interleukin-6 (IL-6). Kind of data set: IL-6 level assay (ELISA). The class given is cell-based, human. To be noted: PC3, IC50 dose, 72 h. How it is done:
IL-6 concentration at all studied cancer cells and normal HaCaT cell lines was measured by ELISA kit (Diaclon SAS Besancon Cedex, France). […] IL-6 in cell culture supernatant was measured using enzyme-linked immunosorbent assay in accordance with the manufacturer’s protocol.
A general note: ELISA stands for enzyme-linked immunosorbent assay.

Data set [11] has as its system SW620 (human metastatic colon cancer). Kind of data set: MTT cytotoxicity assay, SW620. The class given is cell-based. To be noted: SW620, 72 h. How it is done:
as §2, §3
The cell viability was assessed by determination of MTT salt (3-(4,5-dimethylthiazol-2-yl)-2,5-diphenyltetrazolium bromide) conversion by mitochondrial dehydrogenase. MTT assay was performed as previously described. Experiments were repeated three times. Cell viability was presented as a percentage of MTT reduction in the treated cells versus the control cells. Number of viable cells cultured without studied compounds was assumed to be 100%. Decreased relative MTT level means decreased cell viability.

Data set [12] has as its system HaCaT cell. Also noted: method as in PMID 30248936. As to conditions: at the concentration 8 µM; cited from earlier work.
Data set [13] has as its system PC3 (human metastatic prostate cancer). Kind of data set: MTT cytotoxicity assay, PC3. To be noted: PC3, 72 h, MTT. The class given is cell-based. The procedure: as §2, §3, §4
Data set [14] has as its system all strains. Kind of data set: MIC, all strains. The format is cell-based. The procedure: The antimicrobial activity of the compounds was tested on Gram-positive bacteria (Staphylococcus aureus NCTC 4163, Staphylococcus aureus ATCC 25923, Staphylococcus aureus ATCC 6538, Staphylococcus aureus ATCC 29213, Staphylococcus epidermidis ATCC 12228, Staphylococcus epidermidis ATCC 35984), Gram-negative rods (Escherichia coli ATCC 10538, Escherichia coli ATCC 25922, Pseudomonas aeruginosa ATCC 15442, Pseudomonas aeruginosa ATCC 27863) and yeasts (Candida albicans ATCC 10231, Candida albicans ATCC 90028, Candida parapsilosis ATCC 22019). Hospital methicillin-resistant strains of Staphylococcus aureus and Staphylococcus epidermidis were obtained from the collection of the Department of Pharmaceutical Microbiology, Medical University of Warsaw, Poland.
Antifungal activities were assessed using Mueller–Hinton agar + 2% glucose and 0.5 µg/mL methylene blue dye medium. Sterile filter paper discs (9 mm diameter, Whatman Number 3 chromatography paper) were dripped with tested compound solutions (in dimethylsulfoxide, DMSO) to load 400 μg of a given compound per disc. […] The results (diameter of the growth inhibition zone) were read after 18 h of incubation at 35 °C. […] Minimal inhibitory concentrations (the lowest concentration of a tested agent that prevents visible growth of a microorganism) were read after 18 h (bacteria) or 24 h (yeasts) of incubation at 35 °C.

For data set [15], the system named is colon cancer cells. Also noted: method as in ref 2S. To be noted: at 100 μM, ref 2S; cited from earlier work.
Data set [16] relates to PC3 cells. Also noted: method as in ref 3S. As to conditions: 200 μM, ref 3S; cited from earlier work.
In data set [17] the test system is PANC-1. Also noted: method as in ref 3S. As to conditions: PANC-1, 100 μM; ref 3S; cited from earlier work.
The test system of data set [18] is HaCaT cells. Also noted: method as in ref 1S. As to conditions: also printed as 2 mM; ref 1S; cited from earlier work.

One may read the MIC as the least concentration at which growth counts as inhibited. On to “copper (II) complex of 1-(3-chloro-4-fluorophenyl)-3-[3-trifluoromethyl)phenylthiourea”, for which the MIC is 4 to 256 µg/mL in data set [1] and 4 to 8 µg/mL in [2].
By IC50 is commonly meant the concentration needed to halve the response being measured. Low values mean inhibition by little substance, high ones a need for much substance. Regarding `COc1cccc2c1C(=O)c1c(O)c3c(c(O)c1C2=O)C[C@@](O)(C(=O)CO)C[C@@H]3O[C@H]1C[C@H](N)[C@H](O)[C@H](C)O1` [Doxorubicin, reference compound], the “cells at the necrotic stage” value in [3] stood at 51%; in [4] it was 86%; in data set [6], 50%; in data set [8], 42%. For the same compound, the IC50 in data set [5] (Homo sapiens) turned out to be 0.29 ± 0.1 µM; in data set [9] (Homo sapiens) it was 0.75 ± 0.1 µM. In addition, the “late apoptosis, % of cells” value in data set [6] stood at 23%. In data set [7], this compound returned an LDH release of 80%. In addition, the “reduction of IL-6 secretion, times” value in [10] is “almost twofold”.
For the compound `N.N.[Cl][Pt][Cl]` [Cisplatin, reference compound], the 50% inhibitory concentration (IC50) in data set [11] came out at 6.7 ± 1.1 µM; in data set [5], 6.3 ± 0.7 µM; in data set [9] it was 10.4 ± 0.9 µM.
For the compound `O=[N+]([O-])c1cc(NC(=S)Nc2ccc(Cl)c(Cl)c2)ccc1Cl` [Compound L5, 1-(4-chloro-3-nitrophenyl)-3-(3,4-dichlorophenyl)thiourea], the “decrease in HaCaT cell viability” value in [12] is “approximately 20%”.
In the case of `[Cl][Cu][Cl]` [CuCl2, copper (II) chloride, reference compound], the IC50 in data set [11] was 96.3 ± 5.2 µM; in [13], 106 ± 6.3 µM; in [5] it was 114 ± 4.8 µM; in data set [5] (listed as copper (II) chloride), greater than 100 µM; in [9], 109 ± 7.6 µM. For the same compound, the MIC in data set [14] is no less than 128 µg/mL.
`CN(C)C=O` [DMF, dimethylformamide]: in [15], the LDH release result is reported as “not increase LDH release”. Also, the values for the apoptosis in data set [16] and in data set [17] were 85% and 30%, respectively. For the same compound, the “concentration at which DMF influenced HaCaT cells” value in data set [18] is 140 µg/mL.
